Experimental data as given in patent US12667572B2, “Tricyclic compounds useful in the treatment of cancer, autoimmune and inflammatory disorders” (SCHRÖDINGER, INC., priority 2021, dated 2026).

Target: T1, full-length MALT1 protein His-MALT1(1-824) (Homo sapiens, UniProt Q9UDY8)
T1 construct: full-length MALT1 protein His-MALT1(1-824); His (N); made in house; host or cells: baculovirus-infected insect cells
T1 sequence (Q9UDY8 1-824): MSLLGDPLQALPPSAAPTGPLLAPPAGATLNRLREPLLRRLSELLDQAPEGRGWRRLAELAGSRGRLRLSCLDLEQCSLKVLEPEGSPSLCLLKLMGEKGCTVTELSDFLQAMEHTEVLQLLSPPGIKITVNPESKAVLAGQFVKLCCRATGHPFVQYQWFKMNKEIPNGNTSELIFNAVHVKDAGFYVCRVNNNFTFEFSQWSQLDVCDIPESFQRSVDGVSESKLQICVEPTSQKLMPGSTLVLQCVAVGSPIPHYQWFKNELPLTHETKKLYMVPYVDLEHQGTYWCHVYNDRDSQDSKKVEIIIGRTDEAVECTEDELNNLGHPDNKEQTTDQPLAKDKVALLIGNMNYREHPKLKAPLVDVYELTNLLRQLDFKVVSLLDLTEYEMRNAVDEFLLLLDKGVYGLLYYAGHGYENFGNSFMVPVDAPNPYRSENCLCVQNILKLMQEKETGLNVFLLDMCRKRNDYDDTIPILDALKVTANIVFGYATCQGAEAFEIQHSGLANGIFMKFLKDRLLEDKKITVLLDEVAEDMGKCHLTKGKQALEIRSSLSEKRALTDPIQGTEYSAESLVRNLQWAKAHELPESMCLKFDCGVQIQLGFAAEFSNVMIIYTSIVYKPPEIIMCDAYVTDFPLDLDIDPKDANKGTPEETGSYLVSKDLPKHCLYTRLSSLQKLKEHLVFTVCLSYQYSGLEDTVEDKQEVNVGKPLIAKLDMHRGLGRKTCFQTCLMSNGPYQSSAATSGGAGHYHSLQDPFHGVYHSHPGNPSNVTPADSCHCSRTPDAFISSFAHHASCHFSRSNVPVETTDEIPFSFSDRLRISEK
Experiment: MALT1 protease assay, Assay 2 (1 nM MALT1, Ac-LRSR-AMC substrate)
Assay type: biochemical
Details: 1 nM MALT1, 50 μM Ac-LRSR-AMC, 2 h pre-incubation, 8 hr incubation at RT
Experimental: MALT1 protease activity was assessed in an in vitro assay using a tetrapeptide as substrate and full-length MALT1 protein His-MALT1(1-824) purified from baculovirus-infected insect cells. The tetrapeptide substrate is Ac-LRSR-AMC (SM Biochemicals) with Km measured at around 100 μM.
The final assay buffer includes 1 nM (Assay 2) or 2 nM (Assay 1) of MALT1 full-length protein, 50 μM Ac-LRSR-AMC substrate, 50 mM Tris pH 7.5, 600 mM Sodium Citrate, 1 mM DTT, 1 mM EDTA, and 0.05% BSA in 384-well plate format using black microtiter square well plates (Optiplate 384-F, Perkin Elmer).
Test compounds were dissolved in 100% DMSO at stock of 10 mM, with final DMSO concentration 0.1%. Test compounds were pre-incubated with MALT1 protein for 2 h at room temperature. Substrate was added after the pre-incubation and fluorescence signal was measured using Envision at excitation 355 nm and emission 460 nm after 8 hr incubation at RT. Increase in the assay signal was linear over this period and proportional with increase in the enzyme content.
The fluorescence units were transformed to percentage of remaining activity by using the high control (HC, median of fluorescence signal from wells containing MALT1 protein, substrate, and DMSO) and low control (LC, median of fluorescence signal from wells with substrate only) with the formula below: […]
IC50 and Hill coefficients were obtained using Graph Pad Prism (Graph Pad software, Inc, USA) with non-linear regression analysis.

| SMILES | IC50 [nM] |
| --- | --- |
| CC1(C)C[C@@H](C(=O)Nc2cnc(OC(F)F)c(C#N)c2)c2cnc3cc(C(F)F)nn3c21 (single isomer, unassigned) [Example 125, N-(5-cyano-6-(difluoromethoxy)pyridin-3-yl)-2-(difluoromethyl)-8,8-dimethyl-7,8-dihydro-6H-cyclopenta[e]pyrazolo[1,5-a]pyrimidine-6-carboxamide] | ≥ 1000 |
| CC1(C)C[C@@H](C(=O)Nc2cc(N=S(C)(C)=O)nc(C(F)(F)F)c2)c2cnc3cc(F)nn3c21 (single isomer, unassigned) [Example 127, N-(2-((dimethyl(oxo)-λ^6-sulfaneylidene)amino)-6-(trifluoromethyl)pyridin-4-yl)-2-fluoro-8,8-dimethyl-7,8-dihydro-6H-cyclopenta[e]pyrazolo[1,5-a]pyrimidine-6-carboxamide] | ≥ 1000 |
| CC1(C)CC(C(=O)Nc2cnc(N=S(C)(C)=O)c(Cl)c2)c2cnc3cc(F)nn3c21 (single isomer, unassigned) [Example 131, N-(5-chloro-6-((dimethyl(oxo)-λ^6-sulfaneylidene)amino)pyridin-3-yl)-2-fluoro-8,8-dimethyl-7,8-dihydro-6H-cyclopenta[e]pyrazolo[1,5-a]pyrimidine-6-carboxamide] | ≥ 1000 |
| O=C(Nc1cnc(C(O)C(F)F)c(Cl)c1)C1CC2(CCC2)c2c1cnc1cc(F)nn21 (single isomer, unassigned) [Example 133, N-(5-chloro-6-(2,2-difluoro-1-hydroxyethyl)pyridin-3-yl)-2′-fluoro-6′,7′-dihydrospiro[cyclobutane-1,8′-cyclopenta[e]pyrazolo[1,5-a]pyrimidine]-6′-carboxamide] | ≥ 1000 |
| O=C(Nc1cnc(C(O)C(F)F)c(Cl)c1)C1CC2(CCC2)c2c1cnc1cc(F)nn21 (single isomer, unassigned) [Example 134, N-(5-chloro-6-(2,2-difluoro-1-hydroxyethyl)pyridin-3-yl)-2′-fluoro-6′,7′-dihydrospiro[cyclobutane-1,8′-cyclopenta[e]pyrazolo[1,5-a]pyrimidine]-6′-carboxamide] | ≥ 1000 |

Continued, values first:

| IC50 [nM] | SMILES |
| --- | --- |
| 100 to 1000 | CC1(C)C[C@@H](C(=O)Nc2cnc(-n3nccn3)c(Cl)c2)c2cnc3c(F)c(F)nn3c21 (single isomer, unassigned) [Example 121, N-(5-chloro-6-(2H-1,2,3-triazol-2-yl)pyridin-3-yl)-2,3-difluoro-8,8-dimethyl-7,8-dihydro-6H-cyclopenta[e]pyrazolo[1,5-a]pyrimidine-6-carboxamide] |
| 10 to 100 | CC1(C)CC(C(=O)Nc2cnc(OC(F)F)c(C#N)c2)c2cnc3cc(C(F)F)nn3c21 (single isomer, unassigned) [Example 126, N-(5-cyano-6-(difluoromethoxy)pyridin-3-yl)-2-(difluoromethyl)-8,8-dimethyl-7,8-dihydro-6H-cyclopenta[e]pyrazolo[1,5-a]pyrimidine-6-carboxamide] |
| 100 to 1000 | CC1(C)C[C@@H](C(=O)Nc2cnc(-n3nccn3)c(C#N)c2)c2cnc3cc(C(F)F)nn3c21 (single isomer, unassigned) [Example 129, N-(5-cyano-6-(2H-1,2,3-triazol-2-yl)pyridin-3-yl)-2-(difluoromethyl)-8,8-dimethyl-7,8-dihydro-6H-cyclopenta[e]pyrazolo[1,5-a]pyrimidine-6-carboxamide] |
| 10 to 100 | CC1(C)CC(C(=O)Nc2cnc(-n3nccn3)c(C#N)c2)c2cnc3cc(C(F)F)nn3c21 (single isomer, unassigned) [Example 130, N-(5-cyano-6-(2H-1,2,3-triazol-2-yl)pyridin-3-yl)-2-(difluoromethyl)-8,8-dimethyl-7,8-dihydro-6H-cyclopenta[e]pyrazolo[1,5-a]pyrimidine-6-carboxamide] |
| 10 to 100 | CC1(C)CC(C(=O)Nc2cnc(N=S(C)(C)=O)c(Cl)c2)c2cnc3cc(F)nn3c21 (single isomer, unassigned) [Example 132, N-(5-chloro-6-((dimethyl(oxo)-λ^6-sulfaneylidene)amino)pyridin-3-yl)-2-fluoro-8,8-dimethyl-7,8-dihydro-6H-cyclopenta[e]pyrazolo[1,5-a]pyrimidine-6-carboxamide] |
